# Ends that are not written are not given here.
# Key:
# HMB2 melanoma cells = assay: H2O2-induced cell death in HMB2 cells, cell viability by MTT absorbance; assay type: cell-based, human; details: 20 μM polypeptide; 50 μM H2O2 two hours later; viability after 24 hours; versus H2O2-treated cells in the absence of polypeptide; p<0.05; FIG. 1
# Method: FIG. 1 is a graph showing the percentage of cell viability measured by MTT absorbance in HMB2 melanoma cells that were treated with a polypeptide comprising SEQ ID NO: 1 and SEQ ID NO: 2 (TAT-peptide) and H2O2.
# To determine the effect of the administration of a polypeptide comprising SEQ ID NO: 1 on H2O2-induced cell death, HMB2 cells were administered 20 μM of the polypeptide. Two hours following the polypeptide administration, the cells were treated with 50 μM of H2O2. After 24 hours, the cell viability was quantified using MTT absorbance.
# [1] = tested on: MIA-expressing HMB2 human metastatic melanoma cells; assay: Entry of FITC-labeled polypeptide into HMB2 cells (phase contrast and image capture); assay type: cell-based; details: 10 μM FITC-labeled polypeptide, 2.5 hours after addition
# Method: The ability of a polypeptide comprising SEQ ID NO: 4 to enter and sensitize MIA-expressing HMB2 human metastatic melanoma cells to oxidative stress-induced death was examined. Cells were treated with 10 μM FITC-labeled polypeptide, followed by phase contrast and image capture.
Substance,"sensitivity of H2O2-treated cells to H2O2-death (cell viability, MTT absorbance) (HMB2 melanoma cells)",transduction of cells with the peptide [1]
polypeptide comprising SEQ ID NO: 1: Polypeptide comprising residues 41-60 of the p66shc CH2 domain (SEQ ID NO: 1) and HIV TAT (SEQ ID NO: 2) (SLGPILPPLPGDDSPTTLCSYGRKKRRQRR),significantly increased,
"polypeptide comprising SEQ ID NO: 4: Polypeptide comprising a BRR domain (HIV TAT), spacer and CH2 domain portion of p66shc; FITC-labeled in the test (YGRKKRRQRRGGGSLGPILPPLPGDDSPTTLCS; also: FITC label, position not given here)",,the majority of the cells were transduced
